Patent publication US20260285850A1, “SUBSTITUTED OXAZOLIDINONES AND IMIDAZOLINONES AS HERBICIDES” (FMC CORPORATION, priority 2023, published 2026)

What was measured:
Format in all cases: in vivo
[1] = test system: barnyardgrass (Echinochloa crus-galli); experiment: Test A preemergence soil spray, visual injury rating 0-100; conditions: 10 days
Procedure, shortened: (§1)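 Seeds sown in loam-sand blend got a preemergence directed soil spray, or emerged plants (2-10 cm, one- to two-leaf) got a postemergence spray, of compound in non-phytotoxic solvent with surfactant. After 10 days in greenhouse, injury rated visually versus untreated controls on a 0 (no effect) to 100 (complete control) scale.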

[2] = test system: blackgrass (Alopecurus myosuroides); experiment: as above; conditions: 10 days
Procedure, shortened: as §1

corn (Zea mays) [3] = experiment: as above; conditions: 10 days
Procedure, shortened: as §1

[4] = test system: green foxtail (Setaria viridis); experiment: as above; conditions: 10 days
Procedure, shortened: as §1

kochia (Bassia scoparia) [5] = experiment: as above; conditions: 10 days
Procedure, shortened: as §1

[6] = test system: oat, wild (wild oat, Avena fatua); experiment: as above; conditions: 10 days
Procedure, shortened: as §1

[7] = test system: palmer (palmer amaranth, palmer pigweed, Amaranthus palmeri); experiment: as above; conditions: 10 days
Procedure, shortened: as §1

[8] = test system: ragweed (common ragweed, Ambrosia artemisiifolia); experiment: as above; conditions: 10 days
Procedure, shortened: as §1

[9] = test system: ryegrass, Italian (italian ryegrass, Lolium multiflorum); experiment: as above; conditions: 10 days
Procedure, shortened: as §1

soybean (Glycine max) [10] = experiment: as above; conditions: 10 days
Procedure, shortened: as §1

[11] = test system: wheat (Triticum aestivum); experiment: as above; conditions: 10 days
Procedure, shortened: as §1

[12] = test system: barnyardgrass (Echinochloa crus-galli); experiment: Test A postemergence application, visual injury rating 0-100
Procedure, shortened: as §1

[13] = test system: blackgrass (Alopecurus myosuroides); experiment: as above
Procedure, shortened: as §1

corn (Zea mays) [14] = experiment: as above
Procedure, shortened: as §1

[15] = test system: galium (catchweed bedstraw, Galium aparine); experiment: as above
Procedure, shortened: as §1

[16] = test system: green foxtail (Setaria viridis); experiment: as above
Procedure, shortened: as §1

kochia (Bassia scoparia) [17] = experiment: as above
Procedure, shortened: as §1

[18] = test system: oat, wild (wild oat, Avena fatua); experiment: as above
Procedure, shortened: as §1

[19] = test system: palmer (palmer amaranth, palmer pigweed, Amaranthus palmeri); experiment: as above
Procedure, shortened: as §1

[20] = test system: ragweed (common ragweed, Ambrosia artemisiifolia); experiment: as above
Procedure, shortened: as §1

[21] = test system: ryegrass, Italian (italian ryegrass, Lolium multiflorum); experiment: as above
Procedure, shortened: as §1

soybean (Glycine max) [22] = experiment: as above
Procedure, shortened: as §1

[23] = test system: wheat (Triticum aestivum); experiment: as above
Procedure, shortened: as §1

[24] = test system: barnyardgrass (Echinochloa crusgalli); experiment: Test B flooded paddy test, visual plant response rating 0-100; conditions: 250 g ai/ha, Flood, applied to paddy water, evaluated after 13 days
Procedure, shortened: (§2)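 Visual evaluation after 13 days. Water-applied treatment, 3 cm flood depth held constant, plants at 2-leaf stage at treatment.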

[25] = test system: ducksalad (Heteranthera limosa); experiment: as above; conditions: 250 g ai/ha, Flood, applied to paddy water, evaluated after 13 days
Procedure, shortened: as §2

rice (Oryza sativa) = experiment: as above; conditions: 250 g ai/ha, Flood, applied to paddy water, evaluated after 13 days
Procedure, shortened: as §2

[26] = test system: sedge, umbrella (small-flower umbrella sedge, Cyperus difformis); experiment: as above; conditions: 250 g ai/ha, Flood, applied to paddy water, evaluated after 13 days
Procedure, shortened: as §2

[27] = 62 g ai/ha, 0 = no effect, 100 = complete control
[28] = 62 g ai/ha, postemergence, 10 days, 0 = no effect, 100 = complete control
[29] = Postemergence, 16 g ai/ha, greenhouse 10 days, 0 no effect, 100 complete control

COC(=O)C1C=CC(NC(=O)C2(C(F)(F)F)CN(c3cc(F)c(F)c(F)c3)C(=O)O2)C1 (mixture of isomers) [Compound 162]
10: Ragweed plant response rating (0-100) [8, 27] | Soybean plant response rating (soybean (Glycine max) [10]; 16 g ai/ha, 0 to 100 scale) | Pigweed, Palmer plant response rating (0 to 100 scale) [19, 29]
65: Plant response rating, Ducksalad (0 to 100 scale, 0 is no effect and 100 is complete control) [25]
0: Barnyardgrass plant response rating ([1]; 16 g ai/ha, 0 to 100 scale) | Blackgrass plant response rating ([2]; 16 g ai/ha, 0 to 100 scale) | Corn plant response rating (corn (Zea mays) [3]; 16 g ai/ha, 0 to 100 scale) | Foxtail, Green plant response rating ([4]; 16 g ai/ha, 0 to 100 scale) | Kochia plant response rating (kochia (Bassia scoparia) [5]; 16 g ai/ha, 0 to 100 scale) | Pigweed, Palmer plant response rating ([7]; 16 g ai/ha, 0 to 100 scale) | Ragweed plant response rating ([8]; 16 g ai/ha, 0 to 100 scale) | Ryegrass, Italian plant response rating ([9]; 16 g ai/ha, 0 to 100 scale) | Kochia plant response rating (0 to 100 scale) (kochia (Bassia scoparia) [17]; [29]) | Plant response rating, Rice (0 to 100 scale, 0 is no effect and 100 is complete control) (rice (Oryza sativa)) | Plant response rating, Sedge, Umbrella (0 to 100 scale, 0 is no effect and 100 is complete control) [26]
40: Kochia plant response rating (0-100) (kochia (Bassia scoparia) [5]; [27]) | Ragweed plant response rating (0-100) [20, 28]
70: Corn plant response rating (0-100) (corn (Zea mays) [3]; [27]) | Kochia plant response rating (0-100) (kochia (Bassia scoparia) [17]; [28]) | Ryegrass, Italian plant response rating (0-100) [21, 28] | Soybean plant response rating (0-100) (soybean (Glycine max) [22]; [28])
50: Soybean plant response rating (0-100) (soybean (Glycine max) [10]; [27]) | Barnyardgrass plant response rating (0 to 100 scale) [12, 29] | Pigweed, Palmer plant response rating (0-100) [19, 28]
60: Blackgrass plant response rating (0-100) [2, 27] | Galium plant response rating (0-100) [15, 28] | Soybean plant response rating (0 to 100 scale) (soybean (Glycine max) [22]; [29])
90: Oat, Wild plant response rating (0-100) [6, 27] | Wheat plant response rating (0-100) [11, 27] | Blackgrass plant response rating (0 to 100 scale) [13, 29] | Oat, Wild plant response rating (0-100) [18, 28] | Wheat plant response rating (0-100) [23, 28] | Wheat plant response rating (0 to 100 scale) [23, 29]
30: Foxtail, Green plant response rating (0-100) [4, 27] | Pigweed, Palmer plant response rating (0-100) [7, 27] | Galium plant response rating (0 to 100 scale) [15, 29] | Foxtail, Green plant response rating (0 to 100 scale) [16, 29] | Ryegrass, Italian plant response rating (0 to 100 scale) [21, 29]
80: Barnyardgrass plant response rating (0-100) [1, 27] | Ryegrass, Italian plant response rating (0-100) [9, 27] | Foxtail, Green plant response rating (0-100) [16, 28] | Oat, Wild plant response rating (0 to 100 scale) [18, 29]
20: Oat, Wild plant response rating ([6]; 16 g ai/ha, 0 to 100 scale) | Wheat plant response rating ([11]; 16 g ai/ha, 0 to 100 scale) | Ragweed plant response rating (0 to 100 scale) [20, 29] | Plant response rating, Barnyardgrass (0 to 100 scale, 0 is no effect and 100 is complete control) [24]
100: Barnyardgrass plant response rating (0-100) [12, 28] | Blackgrass plant response rating (0-100) [13, 28] | Corn plant response rating (0-100) (corn (Zea mays) [14]; [28]) | Corn plant response rating (0 to 100 scale) (corn (Zea mays) [14]; [29])
